# Laboratory results: US7410995B1, “N-linked sulfonamide of heterocyclic thioesters for vision and memory disorders” (GPI Nil Holdings Inc., priority 1998, dated 2008)
# “Also recorded” adds a separate entry of the source.
# Legend:
# [1] = molecular target: FKBP12 (Homo sapiens, UniProt P62942); assay: Ki test procedure: inhibition of peptidyl-prolyl isomerase (rotamase) activity, chymotrypsin-coupled assay; type: biochemical; conditions: Table V comments; read-out: Ki rotomase
# Description: The inhibition of the prolyl peptidyl cis-trans isomerase activity of FKBP may be measured as an indicator of this affinity. Inhibition of the peptidyl-prolyl isomerase (rotamase) activity of the compounds used in the inventive methods and pharmaceutical compositions can be evaluated by known methods described in the literature (Harding et al., Nature, 1989, 341:758-760; Holt et al. J. Am. Chem. Soc., 115:9923-9938). […] The inhibition of this reaction caused by the addition of different concentrations of inhibitor is determined, and the data is analyzed as a change in first-order rate constant as a function of inhibitor concentration to yield the apparent Ki values. […] The reaction is initiated by the addition of […] of substrate (succinyl-[…]-nitroanilide, 5 mg/mL in 2.35 mM LiCl in trifluoroethanol). The absorbance at 390 nm versus time is monitored for 90 seconds using a spectrophotometer and the rate constants are determined from the absorbance versus time data files.
# [2] = Clearance (Table V comments); type: in vitro ADME
# [3] = test system: retinal ganglion cell axons; assay: Protection of retinal ganglion cell axons from degeneration following optic nerve transection (Table V); type: in vivo; conditions: ± SEM
# Description: Efficacy of representative compounds from different immunophilin ligand series in protecting retinal ganglion cell axons from degeneration following optic nerve transection is set forth in Table V.
# [4] = test system: retinal ganglion cells and optic nerve axons; assay: In vivo retinal ganglion cell and optic nerve axon tests after optic nerve transection (Example 6, Table 1); parameters: species or system Sprague Dawley rats; conditions: for Proximal optic nerve myelin basic protein Density: SEM, % areal coverage of optic nerve cross section; for increased ON axon density: adjusted for optic nerve diameter; for Distal optic nerve stump shrinkage: cross sectional area compared to sham control; for Distal optic nerve myelin basic protein Density: cross sectional area multiplied by myelin density
# Description: All eyes and optic nerves stumps were removed.
# [5] = test system: retinal ganglion cells; assay: Retinal ganglion cell survival and axonal dying back following optic nerve transection (Example 17); type: in vivo, Sprague Dawley rats; conditions: GPI-1046 10 mg/kg/day s.c. for 28 days
# Description: Transection of the mammalian optic nerve results in a brief period of abortive regeneration, but the majority of axotomized neurons die and the axons from many persisting ganglion cells die back beyond the optic nerve head.
# [6] = test system: retinal ganglion cells; assay: Retinal ischemia: retinal ganglion cell, optic nerve axon and myelin degeneration (FIGS. 1, 2); type: in vivo, rats
# Description: Retinal ganglion cells were retrogradely labeled in adult rats by bilateral injection of fluorogold in their lateral geniculate nuclei. Labeled ganglion cells in the normal rat retina appear as white profiles against the dark background (FIG. 1A). Complete retinal ischemia was produced by infusing normal saline solution into the retinal vitreous cavity of each eye until the intraocular pressure exceeded arterial blood pressure. 28 days after the ischemic episode extensive degeneration of retinal ganglion cell was evidenced by massive reduction in the density of fluorogold labeled cells (FIG. 1B). […] FIG. 2. […] Optic nerves from vehicle treated cases examined 28 days after a 1 hour retinal ischemic episode are characterized by a decreased density of optic nerve axons and the appearance of numerous degenerating myelin figures (bright white filled circles). […] FIG. 3. […] Few spared fluorogold pre labeled ganglion cells are present in vehicle treated cases (large white figures) among a population of small microglia that digest the debris of the degenerating cells and take up the fluorogold label (FIG. 3A). […] FIG. 4. […] 90 days after transection few ganglion cell axons remain within the optic nerve (FIG. 4B), representing only 5.6% of the normal population. The loss of axons reflects both the death of retinal ganglion cells and the regression or “dying back” of the axons of ˜70% of the small surviving ganglion cell population into the retina itself (Table 1). […] FIG. 5. […] FIG. 6. […] 90 days after transection extensive degeneration of myelin is evident in vehicle treated cases, characterized by the loss of fascicular organization and the appearance of numerous large dense degenerating myelin figures (FIG. 6B, upper right). […] FIG. 7. FKBP-12 immunohistochemistry labels oligodendroglia (large dark cells with fibrous processes), the cells which produce myelin, located between the fascicles of optic nerve fibers, and also some optic nerve axons. FIG. 8. […]
# [7] = test system: retina; assay: Streptozotocin induced diabetes: retinal neovascularization and neuron loss (FIG. 9); type: in vivo
# [8] = Peripheral sensory neuropathy in streptozotocin-induced diabetic rat, hot plate and tail flick (Example 18); type: in vivo, Wistar rats; conditions: lesioned animals treated for 6 weeks at 10 mg/kg s.c.
# Experimental: The procedure involved using Male Wistar rats which were given a single injection of streptozotocin (65 mg/kg i.v.). Blood glucose levels were determined weekly for the first three weeks and on the last week of the experiment. Animals were evaluated weekly for signs of sensory neuropathy using the conventional hot plate and tail flick apparatus test procedures.
# [9] = Morris watermaze spatial learning and memory in aged rodents (Example 19); type: in vivo, C57BL/6N-Nia mice; conditions: aged impaired mice, daily 10 mg/kg GPI-1046, retention testing after 3 weeks of dosing; listed as GPT-1046, 10 mg/kg
# Description: In all of these tasks, a proportion of aged rats or mice perform as well as the vast majority of young control animals, while other animals display severe impairments in memory function compared to young animals. […] Specifically, rodent spatial learning and memory decline during aging has been accepted by many investigators as an intriguing correlative animal model of human senile dementia. Cholinergic function in the hippocampus has been extensively studied as a component of spatial learning in rodents, and declining hippocampal cholinergic function has been noted in parallel with the development of learning and memory impairments. […] Also, reports on age-related deficits of hippocampal long-term potentiation (LTP)-induction, a reduction in theta rhythm frequency, a loss of experience-dependent plasticity of hippocampal place-units, and reductions in hippocampal protein kinase C are in keeping with the concept that no single underlying pathology can be identified as the cause of age-related behavioral impairment in rodents. However, the various experimental therapeutic approaches that have been undertaken to improve memory function in aged rodents have been somewhat slanted towards the cholinergic hypothesis. The Morris watermaze is widely used for assessing spatial memory formation and retention in experimental animals. […]
# Sequence of FKBP12 (P62942 whole entry, species assumed): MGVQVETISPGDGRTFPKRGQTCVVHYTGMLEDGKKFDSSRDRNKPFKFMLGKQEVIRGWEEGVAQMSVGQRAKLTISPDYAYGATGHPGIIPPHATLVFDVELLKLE
compound,measurement,setting,value
"3-(3-pyridyl)-1-propyl (2s)-1-(3,3-dimethyl-1,2-dioxopentyl)-2-pyrrolidinecarboxylate [GPI 1046]",Ki,[1],7.5 nM
same,Clearance,[2],3.5 µL/min
same,RT 97 RGC axon density 14 days after ON transection,[3],60.5% ± 3.9 SEM
O=C(SCCCc1ccccc1)[C@@H]1CCCN1C(=O)NC12CCC(CC1)C2 [B],Ki,[1],149 nM
same,RT 97 RGC axon density 14 days after ON transection,[3],100.0% ± 5.2% SEM
O=C(SCCCc1ccccc1)[C@@H]1CCCN1S(=O)(=O)Cc1ccccc1 [C],RT 97 RGC axon density 14 days after ON transection,[3],60.4% ± 3.1% SEM
CCC(C)(C)C(=O)C(=O)N1CCCC[C@H]1C(=O)SCCC(c1ccccc1)c1ccccc1 [Compound K],RT 97 RGC axon density 14 days after ON transection,[3],13.0% ± 4.2% SEM
CCC(C)(C)C(=O)C(=O)N1CCCCC1C(=O)OC(CCc1ccccc1)CCc1ccccc1 (centres unmarked) [E],Clearance,[2],41.8 µL/min
CCC(C)(C)C(=O)C(=O)N1CCS[C@@H]1C(=O)OCCCc1cccnc1 [F],RT 97 RGC axon density 14 days after ON transection,[3],55.1% ± 5.9% SEM
"CCC(C)(C)C(=O)C(=O)N1CCC[C@H]1C(=O)OCCCc1cccnc1 [GPI 1046, 3-(3-pyridyl)-1-propyl (2s)-1-(3,3-dimethyl-1,2-dioxopentyl)-2-pyrrolidinecarboxylate]",quantitative recovery in myelin density,"[4]; GPI 1046 for the first 14 days after transection, proximal stump",1.60
same,"myelin levels, distal stump",[4]; GPI 1046 through the first 28 days after transection,~99 % of normal levels
same,Proximal optic nerve myelin basic protein Density,[4]; ONT/14 days GPI 1046,did not alter the pattern of myelin degeneration
same,increased ON axon density,[4]; ONT/14 days GPI 1046,1.5 X
same,Distal optic nerve stump shrinkage,[4]; ONT/14 days GPI 1046,did not protect against shrinkage of the distal stump
same,Distal optic nerve myelin basic protein Density,[4]; ONT/14 days GPI 1046,slightly increase the density of myelin
same,Proximal optic nerve myelin basic protein Density,[4]; ONT/28 days GPI 1046,prevents myelin degeneration in the proximal stump
same,increased ON axon density,[4]; ONT/28 days GPI 1046,5.0 X
same,Distal optic nerve stump shrinkage,[4]; ONT/28 days GPI 1046,prevented cross sectional shrinkage of the distal stump
same,Distal optic nerve myelin basic protein Density,[4]; ONT/28 days GPI 1046,prevents myelin degeneration in the distal stump
same,axons of protected neurons in the proximal stump (RT97),[5]; 90 days after transection,preserved the axons of virtually all protected neurons
same,ganglion cell population spared,[5]; sacrificed 90 days after transection,25%
same,protection of retinal ganglion cells (fluorogold labeled) against degeneration,"[6]; GPI 1046 10 mg/kg s.c. 1 hour prior to ischemia and 10 mg/kg/day for next four days, 28 days after ischemia",noticeable protection of a large proportion of the vulnerable ganglion cell population; also recorded: protects retinal ganglion cells against degeneration
same,density of degenerating myelin figures,"[6]; same retinal ischemia cases, 28 days after 1 hour ischemic episode",dramatically decreased
same,degeneration of optic nerve axons,"[6]; same retinal ischemia cases, 28 days after 1 hour ischemic episode, toluidine blue staining",protected the majority of optic nerve axons from degeneration; also recorded: prevents degeneration of optic nerve axons and myelin
same,loss of neurons in the INL and GCL,"[7]; 28 day GPI 1046 treatment beginning 8 weeks after onset of diabetes, compared to streptozotocin/vehicle",protects neurons in the inner nuclear layer (INL) and ganglion cell layer (GCL) from degeneration
same,"neovascularization in the retina (PR, ONL, OPL, INL)",[7]; 28 day GPI 1046 treatment beginning 8 weeks after onset of streptozotocin induced diabetes,reduced neovascularization; also recorded: decreases the extent of neovascularization
same,"latency, hot plate and tail flick",[8],improvement in latency
same,"spatial memory performance (swim distance), retention testing",[9],no longer any statistically significant difference
CCC(C)(C)C(=O)C(=O)N1CCCC[C@H]1C(=O)O [G],RT 97 RGC axon density 14 days after ON transection,[3],34.0% ± 4.8% SEM
CCC(C)(C)C(=O)C(=O)N1CCCC[C@H]1C(N)=O [H],RT 97 RGC axon density 14 days after ON transection,[3],30.3% ± 8.0% SEM
O=C(OCCCc1cccnc1)[C@@H]1CCCN1C(=S)NC1CCCCC1 [I],RT 97 RGC axon density 14 days after ON transection,[3],23.8% ± 5.3% SEM
CCC(C)(C)C(=O)C(=O)N1CCC[C@H]1C(=O)CCCCc1cccnc1 [J],RT 97 RGC axon density 14 days after ON transection,[3],15.8% ± 4.8% SEM
CCC(C)(C)C(=O)C(=O)N1CCC[C@H]1C(=O)O [L],Ki,[1],> 7740 nM
same,RT 97 RGC axon density 14 days after ON transection,[3],7.8% ± 3.0% SEM
CCC(C)(C)C(=O)C(=O)N1CCC[C@H]1C(=O)SCCC(c1ccccc1)c1ccccc1 [M],RT 97 RGC axon density 14 days after ON transection,[3],−6.3% ± 3.9% SEM
